Results on 2 molecules are retold here after patent US20100137239A1, “GEMCITABINE COMBINATION THERAPY” (GLOUCESTER PHARMACEUTICALS, priority 2006, published 2010).

Molecules are shown by their SMILES. Values joined by “and” are separate entries in the source; they are usually repeats but may differ in a detail not shown here. Identical values can stand only once.

One test has as its system acetylated histone 3. Nature of the test: Immunoblot of acetylated histone 3 in PANC-1 xenograft tumors. In kind it is in vivo, human. Particulars: FK228 5 mg/kg Q4Dx3; gemcitabine 80 mg/kg Q3Dx4; tumors at study completion; vs controls. As for the experimental part: Abstract: To examine activity and mechanism of FK228, antitumor efficacy was tested in PANC-1 pancreatic adenocarcinoma model representing transformed Ras, either as a single agent or in combination with gemcitabine. Following PANC-1 study completion, tumor and sera were obtained from: • the vehicle control; • FK228 dosed at 5 mg/kg once every four days for three treatments (Q4Dx3); • Gemcitabine at 80 mg/kg (Q3Dx4); and • the drug combination. Expression of c-Myc, acetylated histones 3 and 4, and p21^waf1 was compared between control and FK228 groups by immunoblotting and was quantified following actin normalization. Serum levels of putative tumor products b-FGF and MMP-2 were quantified by human-specific ELISA. […]
Tissue Biomarkers: Tumor levels of acetylated histone-4, histone-4, c-Myc, p21waf and β-actin were quantified by immunoblotting as described. […] The chemiluminescence signal was captured by autoradiography, quantified by densitometry and expressed as a ratio of actin in each sample lane. For each biomarker, means and standard errors were calculated in each treatment group. […]
Expression of c-Myc, acetylated histones 3 and 4, and p21^waf1 was compared between control and FK228 groups by immunoblotting and was quantified following actin normalization. Serum levels of putative tumor products b-FGF and MMP-2 were quantified by human-specific ELISA. […]
A general note: In western blotting, separated proteins are transferred to a membrane and probed.

The test system of test [1] is PANC-1 Human Pancreatic Tumor Xenograft. Nature of the test: PANC-1 xenograft tumor growth inhibition study (Example 3). It counts as in vivo, mouse xenograft. Particulars: for % TGI: PANC-1, Day 25; for activity according to NCI Standards / #PR/CR / FINAL TUMOR VOLUME (DAY 25) MEAN ± SEM / calculated TGI values (discussion) / % TR: PANC-1; for calculated TGI values (discussion): all evaluated doses and schedules. The source says:
(Madison, Wis.). […] Tumor measurements were converted to cubic millimeter tumor volume using the formula^(5): […] Final mean tumor volume ±SEM for each group was reported; animals experiencing partial or complete tumor regressions or animals experiencing technical or drug-related deaths were censored from these calculations. […] TGI values for each treatment group are reported at study completion; these calculations are based on the final study day. […] If partial tumor regression was reported in multiple animals within one group, a mean value was determined. Individual mice lacking palpable tumors were classified as undergoing complete regression (CR). Animals experiencing partial or complete tumor regressions were censored from TGI calculations. However, data from these animals was included in statistical analysis calculations. In addition, weight data from these animals was included in daily and final group calculations. Tumor Necrosis-Degree of tumor necrosis was rated at each tumor measurement using the following arbitrary index: [table]

[2] abbreviates: FK228 2.5 mg/kg IV Q4Dx3, 2.5 mg/kg.
The mark [3] stands for this setting: FK228 5 mg/kg IV Q4Dx3, 5 mg/kg.

As for `C/C=C1\NC(=O)[C@H]2CSSCC/C=C/[C@H](CC(=O)N[C@H](C(C)C)C(=O)N2)OC(=O)[C@H](C(C)C)NC1=O` [FK228, romidepsin], the “acetylation of histone 3” value in the test with acetylated histone 3 is “not affected”. Also, in test [1] (FK228 2.5 mg/kg IV Q4Dx3), the “% TGI” value was found to be 26% and the “activity according to NCI Standards” value is “inactive”. Further, in test [1] (FK228 5 mg/kg IV Q4Dx3), the “% TGI” value came to 26% and the “activity according to NCI Standards” value was “inactive”. In test [1] (setting [2]), the “#PR/CR” value was 0/9 and 0/0; the “FINAL TUMOR VOLUME (DAY 25) MEAN ± SEM” value worked out at 1688±290 mm^3. Besides, in test [1] (setting [3]), the “#PR/CR” value is 0/9 and 0/0; the “FINAL TUMOR VOLUME (DAY 25) MEAN ± SEM” value was 1690±290 mm^3 and 1690 ± 331 mm^3. In addition, the “calculated TGI values (discussion)” value in test [1] is given as “less than 58%”. Further, the “single agent activity towards tumor model” value in test [1] (ras-transformed PANC-1) was “some activity”.

Consider `Nc1ccn([C@@H]2O[C@H](CO)[C@@H](O)C2(F)F)c(=O)n1` [Gemcitabine, gemcitabine], for which the “acetylation of histone 3” value in the test with acetylated histone 3 is “significantly inhibited”. In addition, in test [1] (Gemcitabine 40 mg/kg IP Q3Dx4), the “% TGI” value is listed as 31%; the “#PR/CR” value was 1/9 and 1/0; the “% TR” value is 62%; the “FINAL TUMOR VOLUME (DAY 25) MEAN ± SEM” value stood at 1566±255 mm^3. The “activity according to NCI Standards” value in test [1] (Gemcitabine 40 mg/kg IP Q3Dx4) is “inactive”. Moreover, in test [1] (Gemcitabine 80 mg/kg IP Q3Dx4), the “% TGI” value worked out at 51%; the “#PR/CR” value was 0/9 and 0/0; the “FINAL TUMOR VOLUME (DAY 25) MEAN ± SEM” value was found to be 1172±234 mm^3; the “activity according to NCI Standards” value is “inactive”. For the same molecule, the “% TR” value in test [1] (Gemcitabine 40 mg/kg IP Q3Dx4, listed as gemcitabine) turned out to be 62%. For the same molecule, in test [1], the “calculated TGI values (discussion)” value was “less than 58%”.
